Where two headings read alike, the source gives them in different places.
Tests used:
Smo-633 = target: T1, Smo-633 (Homo sapiens, UniProt Q99835); test: Smo/βarr2-GFP translocation high-throughput imaging assay (antagonist mode); assay type: cell-based; conditions: for inhibition of intracellular βarr2-GFP aggregation: U2OS cells with Smo-633 and βarr2-GFP, 5 μM
T1 construct: expressed in transfected cells
Description: U2OS cells stably expressing a chimera Smo-633 receptor and βarr2-GFP were used in HTS screening.
To identify novel Smo inhibitors, we screened chemical libraries using our confocal imaging, cell-based platform assay as the primary high-throughput screening assay. […] Thus, small molecule inhibitors of Smo are identified by the loss of the punctate pattern.
To control for receptor specificity and to rule-out non-specific mechanisms, hits were cross-screened in the same assay format using the vasopressin2 receptor (V2R), a different seven-transmembrane receptor. In this control assay, cells transfected with V2R and βarr2-GFP are stimulated with the agonist arginine vasopressin. […] This control assay helps ensure the mechanism of inhibition is Smo receptor specific and allows molecules with non-specific mechanisms of inhibition to be ruled-out.

wild-type Smo = target: T2, wild-type Smo (Homo sapiens, UniProt Q99835); test: [3H]-cyclopamine competitive binding, wild-type Smo; conditions: 25 nM [3H]-cyclopamine; for displacement of [3H]-cyclopamine from wild-type Smo: U2OS cells overexpressing wild-type Smo; for Ki: fixed U2OS cells overexpressing wild-type Smo, mean±SEM, read-out: Ki, displacement of [3H]-cyclopamine from Smo
T2 construct: expressed in transfected cells; host or cells: U2OS
Procedure: (§1) FIG. 3. […] The displacement data were analyzed by fitting to a one-site competition curve using Graphpad Prism. Data were acquired in triplicates from three independent experiments and are presented as the mean±SEM.
(§2) For competitive binding assays, U2OS cells overexpressing wild-type Smo or Smo-D473H mutant receptors were grown in 24-well plates and fixed with 4% (v/v) formaldehyde/PBS for 20 min at room temperature (RT).

Smo-D473H = target: T3, Smo-D473H (Homo sapiens, UniProt Q99835, D473H); test: [3H]-cyclopamine competitive binding, Smo-D473H mutant; conditions: for competition for binding / displacement of [3H]-cyclopamine from Smo-D473H: U2OS cells overexpressing Smo-D473H
T3 construct: expressed in transfected cells; host or cells: U2OS
Procedure: as §1, §2

[1] = test system: Shh-induced Gli reporter activity; test: Gli-luciferase reporter assay in Shh-LIGHT2 cells; assay type: cell-based
Procedure: FIG. 4. […] Cells were then exposed to [3H]-thymidine for 16 h and [3H]-thymidine incorporation was measured. Data were fit using Graphpad Prism (mean±SEM, n=3).
The Gli-luciferase assay was conducted in Shh-LIGHT2 cells, a clonal NIH3T3 cell line stably incorporating Gli-dependent firefly luciferase and constitutive Renilla luciferase reporters35. Cells were treated with purified Sonic Hedgehog protein (50 ng/mL) together with the corresponding compounds for 2 days. The reporter activity was determined by using the Dual-Luciferase Reporter Assay System (Promega).

[2] = test system: cerebellar granular cell precursor (GCP) cells; test: GCP cell proliferation ([3H]-thymidine incorporation); assay type: cell-based, mouse; conditions: read-out: IC50, inhibition of GCP proliferation
Procedure: FIG. 4. Compound A8 inhibits Gli-reporter activity and GCP proliferation. […] Cells were then exposed to [3H]-thymidine for 16 h and [3H]-thymidine incorporation was measured. Data were fit using Graphpad Prism (mean±SEM, n=3).
Primary neuronal granular cell precursor (GCP) cells were obtained from the cerebellum of 7-day postnatal C57BL/6 mice and labeled with [3H]-thymidine. Proliferation assays were performed as previously described28.

Hh-induced hair growth = test: Hair regrowth after depilation, topical treatment; assay type: in vivo, mouse; conditions: C57BL/6 female mice, 0.5 mM, 30 μl topically daily for two weeks
Procedure: Eight-week-old C57BL/6 female mice were shaved on the dorsal surface and depilated with Nair® (Carter-Wallace, New York, N.Y.). Briefly, the bottom half of the shaved area was treated with Nair for 2 min, and the depilated area rinsed with water to remove residual Nair. Compound A8 was dissolved in a vehicle of 95% acetone/5% DMSO at a concentration of 0.5 mM, and 30 μl of A8 solution or the vehicle were applied topically to the depilated area of mice daily for two weeks. Mice were anesthetized briefly using 3% isoflurane anesthetic inhalant during all procedures. Five mice were included in each treatment group. All animals were treated in accordance with protocols approved by Institutional Animal Care and Use Committee at Duke University.
Hedgehog signaling plays a key role in regulating hair follicle growth40. To determine the efficacy of the novel Smo inhibitor A8 in suppressing Hh signaling in vivo, we used a model of hedgehog inhibition that examines inhibition of hair-growth41-43. Eight-week old Female C57BL mice in telogen phase of the hair cycle were used in these experiments44. Chemical depilation with Nair® induces anagen phase and regrowth of hair by activating the Hh signaling pathway. In our experiments, most of the hair on the back of vehicle treated mice grew back 2 weeks after removal with Nair (data not shown).

[3] = Storage of the active impurity in solution, activity retained; assay type: physicochemical; conditions: room temperature, DMSO or methanolic solution, 1 week
Description: Subsequent characterization of this impurity by high-resolution mass spectrometry (HRMS) and by extensive NMR analysis allowed assignment of structure to the impurity as shown for Compound A8 (FIG. 2A). Confirmation of the structural assignment was achieved by synthesis of authentic material using the route described in FIG. 2B. Synthesized material matched the isolated material from the library sample by extensive NMR analysis, HRMS, TLC and HPLC.

[4] = target: T4, vasopressin2 receptor (V2R) (Homo sapiens, UniProt P30518); conditions: cells transfected with V2R and βarr2-GFP, arginine vasopressin stimulated; cited from earlier work
T4 construct: expressed in transfected cells

[5] = mouse GCP cells, 48 hours with Shh, then [3H]-thymidine 16 h, mean±SEM, n=3

T3 sequence (Q99835 28-787 D473H): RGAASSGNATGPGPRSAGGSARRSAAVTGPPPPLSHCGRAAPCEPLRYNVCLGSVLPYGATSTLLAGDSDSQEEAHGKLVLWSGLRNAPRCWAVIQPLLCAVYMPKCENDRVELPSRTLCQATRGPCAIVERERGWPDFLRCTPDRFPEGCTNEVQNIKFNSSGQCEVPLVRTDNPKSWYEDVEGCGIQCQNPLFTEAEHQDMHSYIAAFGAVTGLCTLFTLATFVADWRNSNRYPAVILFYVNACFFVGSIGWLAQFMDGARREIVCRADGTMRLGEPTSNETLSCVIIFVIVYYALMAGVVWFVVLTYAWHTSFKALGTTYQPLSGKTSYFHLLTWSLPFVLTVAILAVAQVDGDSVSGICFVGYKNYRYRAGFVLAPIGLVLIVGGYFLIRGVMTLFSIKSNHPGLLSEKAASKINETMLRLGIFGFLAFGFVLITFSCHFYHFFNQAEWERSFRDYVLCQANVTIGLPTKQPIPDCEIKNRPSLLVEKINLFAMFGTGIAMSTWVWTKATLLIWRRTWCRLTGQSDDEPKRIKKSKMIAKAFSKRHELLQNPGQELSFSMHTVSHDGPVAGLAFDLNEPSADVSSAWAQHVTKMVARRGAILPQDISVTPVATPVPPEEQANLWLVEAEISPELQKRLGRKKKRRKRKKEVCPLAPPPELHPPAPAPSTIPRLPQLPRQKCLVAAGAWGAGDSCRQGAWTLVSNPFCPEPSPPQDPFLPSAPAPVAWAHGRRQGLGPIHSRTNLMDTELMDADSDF
T2 sequence (Q99835 28-787): as the sequence (Q99835 28-787 D473H) above, with H446D counted along it
T1 sequence (Q99835 with tags, fused parts or gaps limits assumed): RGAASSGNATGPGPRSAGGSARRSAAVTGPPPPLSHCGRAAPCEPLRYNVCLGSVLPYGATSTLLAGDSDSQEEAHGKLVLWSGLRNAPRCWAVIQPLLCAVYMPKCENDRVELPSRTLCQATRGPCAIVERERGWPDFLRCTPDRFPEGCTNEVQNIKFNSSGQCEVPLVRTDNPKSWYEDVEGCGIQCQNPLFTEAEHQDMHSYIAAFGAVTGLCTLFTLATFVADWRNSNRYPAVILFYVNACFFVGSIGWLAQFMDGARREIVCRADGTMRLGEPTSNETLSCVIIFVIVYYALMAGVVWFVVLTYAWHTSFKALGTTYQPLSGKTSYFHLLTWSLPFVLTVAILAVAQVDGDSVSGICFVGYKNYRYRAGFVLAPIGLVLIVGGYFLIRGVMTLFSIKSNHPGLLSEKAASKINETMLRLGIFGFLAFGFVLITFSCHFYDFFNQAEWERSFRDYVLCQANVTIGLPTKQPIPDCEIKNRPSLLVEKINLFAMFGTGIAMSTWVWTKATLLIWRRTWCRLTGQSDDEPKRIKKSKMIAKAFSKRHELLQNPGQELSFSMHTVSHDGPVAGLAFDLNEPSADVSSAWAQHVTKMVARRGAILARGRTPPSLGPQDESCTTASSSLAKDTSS
T4 sequence (P30518 whole entry, species assumed): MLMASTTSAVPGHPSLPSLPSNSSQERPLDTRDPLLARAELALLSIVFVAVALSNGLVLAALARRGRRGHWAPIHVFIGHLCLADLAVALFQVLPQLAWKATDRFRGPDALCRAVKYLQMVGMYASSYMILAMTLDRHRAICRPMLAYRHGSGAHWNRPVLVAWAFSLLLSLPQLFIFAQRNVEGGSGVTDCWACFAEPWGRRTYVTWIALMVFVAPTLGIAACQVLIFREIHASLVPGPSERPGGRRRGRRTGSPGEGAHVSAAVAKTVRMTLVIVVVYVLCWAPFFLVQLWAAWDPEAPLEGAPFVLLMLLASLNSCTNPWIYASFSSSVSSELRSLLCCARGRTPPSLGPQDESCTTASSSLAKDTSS

Row | Compound | inhibition of intracellular βarr2-GFP aggregation (Smo-633) | displacement of [3H]-cyclopamine from wild-type Smo (wild-type Smo) | Ki (wild-type Smo) [nM] | competition for binding / displacement of [3H]-cyclopamine from Smo-D473H (Smo-D473H) | IC50 [2, 5] [nM] | also measured
1 | O=C(NC1CCN(Cc2ccc(N3CCC(NC(=O)c4cccc(-c5cccnc5)c4)CC3)nc2)CC1)c1cccc(-c2cccnc2)c1 [Compound A8] | activity of the synthesized material was confirmed | completely displaced | 37.9 ± 3.7 | completely displace | 16.6 ± 2.3 | Ki (Smo-D473H; fixed U2OS cells overexpressing Smo-D473H, 25 nM [3H]-cyclopamine, mean±SEM, read-out: Ki, displacement of [3H]-cyclopamine from Smo-D473H receptors): 478 ± 123 nM; IC50 ([1]; Shh-LIGHT2 cells, Sonic Hedgehog 50 ng/mL, mean±SEM, n=3, read-out: IC50, inhibition of Shh-induced Gli reporter activity): 2.6 ± 0.4 nM; Hh-induced hair growth (Hh-induced hair growth): largely inhibited; activity after storage in solution [3]: retained activity
2 | CS(=O)(=O)c1ccc(C(=O)Nc2ccc(Cl)c(-c3ccccn3)c2)c(Cl)c1 [GDC-0449] | – | completely displaced | – | largely ineffective | 16.4 ± 2.5 | displacement of [3H]-cyclopamine from Smo-D473H at high concentration (Smo-D473H; 10 μM compound): only partially displaced
3 | Cc1c(C(=O)Nc2ccc(N3C[C@@H](C)O[C@@H](C)C3)nc2)cccc1-c1ccc(OC(F)(F)F)cc1 [LDE-225] | – | completely displaced | 6 ± 1.4 | largely ineffective | – | –
4 | CCN(C)Cc1ccc(N2CCC(NC(=O)c3cccc(-c4cccnc4)c3)CC2)nc1 [Tripos 3910] | – | – | – | – | – | Smo antagonist activity of resynthesized sample compared to previous test samples (Smo-633; material synthesized at Duke, assay not specified): substantially reduced Smo antagonist activity
5 | CC1=C2C[C@H]3[C@@H](CC=C4C[C@@H](O)CC[C@@]43C)[C@@H]2CC[C@]12O[C@@H]1C[C@H](C)CN[C@H]1[C@H]2C [cyclopamine] | inhibits the aggregation of βarr2-GFP | completely displaced | – | completely displace | – | inhibition of the Gli-reporter activity ([1]; 1 μM concentration): strong inhibition; IC50 ([2]; Mus musculus): 414 ± 73 nM; inhibition of aggregation of V2R and βarr2-GFP [4]: not inhibited

Source: patent US9512106B2, “Smoothened modulators and methods of use thereof” (Duke University, priority 2012, dated 2016)
